In general, GI50 refers to the concentration that inhibits growth by half. Usually IC50 stands for the concentration that gives 50% inhibition.

Where two headings read alike, the source gives them in different places.

For experiment [1], the system named is AN3CA endometrial cancer cells with mutant FGFR2 (N549K). Description: cells. To be noted: Homo sapiens, AN3-CA, read-out: Cell growth GI50 (nM).
From the text: (§1) Data are shown as mean (±SD) from 3 separate experiments tested in triplicate.
For experiment [2], the system named is OPM2 multiple myeloma cells, mutant FGFR3 (K650E). Description: cells. The note with it: Homo sapiens, OPM-2, read-out: Cell growth GI50 (nM).
From the text: as §1
For experiment [3], the system named is MDA-MB-453 breast cancer cells, mutant FGFR4 (Y367C). Nature of the experiment: cells. The note with it: Homo sapiens, MDA-MB-453, read-out: Cell growth GI50 (nM).
From the text: as §1
Experiment [4] deals with KG1 cells (FGFR1-FGFR1OP2 fusion). Description: Cell growth assay (72 h). The format is cell-based. The note with it: Homo sapiens.
From the text: as §1
In experiment [5] the test system is FGFR2 signaling in SNU16 gastric cells (Amplified). Nature of the experiment: cells. To be noted: Homo sapiens, SNU-16, read-out: Signaling IC50 (nM).
From the text: Cells were lysed in either SDS buffer or Phospho-Safe (Novagen, Gibbstown, N.J.) and protein lysates were immunoprecipitated overnight and/or immunoblotted with the indicated antibodies. Protein expression was quantified using Quantity One software (BioRad, Hercules, Calif.).
For experiment [6], the system named is MGH-U3 bladder cancer cells, mutant FGFR3b (Y375C). Description: Cell growth assay (72 h). The format is cell-based.
From the text: as §1
The subject of experiment [7] is SNU16 gastric cancer cells with amplified FGFR2. Description: cells. The note with it: Homo sapiens, SNU-16, read-out: Cell growth GI50 (nM).
From the text: as §1
The next experiment has as its target FGFR2 (Homo sapiens, UniProt P21802). Nature of the experiment: Kinase assay (RBC). The note with it: IC50 (nM), 10 μM ATP.
In another experiment the target is FGFR4 (Homo sapiens, UniProt P22455). Nature of the experiment: Kinase assay (RBC).
Sequence of FGFR4 (P22455 467-755 limits assumed): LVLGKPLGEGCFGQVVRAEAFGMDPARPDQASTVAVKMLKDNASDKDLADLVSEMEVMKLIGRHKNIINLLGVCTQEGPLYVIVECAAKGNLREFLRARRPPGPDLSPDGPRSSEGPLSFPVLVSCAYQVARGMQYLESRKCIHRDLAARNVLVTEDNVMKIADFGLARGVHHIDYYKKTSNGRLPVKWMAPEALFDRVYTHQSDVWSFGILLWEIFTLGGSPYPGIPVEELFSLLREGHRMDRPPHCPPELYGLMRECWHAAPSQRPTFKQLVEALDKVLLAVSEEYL
In experiment [8] the test system is AN3CA endometrial cancer cell line. Description: Combination cell growth assay (Chou and Talalay). The note with it: AN3CA cells; cell growth; read-out: 1×EC50 concentration. It is filed as cell-based.
The subject of experiment [9] is FGFR2-mutant AN3CA tumor xenograft. Description: AN3CA xenograft, compound 1 and ridaforolimus (Example 9). It is filed as in vivo, nude mice.
Method: AN3CA cells were implanted into the right flank of nude mice. […] Mean tumor volumes (±SE; tumor volume=L×W^2×0.5) were calculated for each treatment group.
In experiment [10] the test system is MFE-296 endometrial cancer cell line. Description: Combination cell growth assay (Chou and Talalay). To be noted: MFE-296 cells; cell growth; read-out: 1×EC50 concentration. It is filed as cell-based.
In another experiment the test system is MV4-11 cells (FLT3-ITD). Nature of the experiment: Cell viability assay (72 h). The note with it: Homo sapiens, MV4-11, 72 h, read-out: Cell viability IC50 (nM).
The test system of experiment [11] is Kasumi-1 cells (c-KIT N822K). Description: Cell viability assay (72 h). The format is cell-based. The note with it: Homo sapiens; Kasumi-1; 72 hours; read-out: Cell viability IC50.
Method: (§2) Exponentially growing cell lines were plated into 96-well plates and incubated overnight at 37° C. […] Fluorescence was measured using a Wallac Victor microplate reader (PerkinElmer, Waltham, Mass.). […] Data are shown as mean (1 SD) from 3 separate experiments, each tested in triplicate.
Experiment [12] relates to EOL1 cells (FIP1L1-PDGFRα). Nature of the experiment: Cell viability assay (72 h). To be noted: Homo sapiens, EOL1, 72 h, read-out: Cell viability IC50 (nM).
Method: as §2
The subject of experiment [13] is KG1 cells (FGFR1OP2-FGFR1). Description: Cell viability assay (72 h). To be noted: Homo sapiens, KG-1, 72 h, read-out: Cell viability IC50 (nM).
Method: as §2
For the next experiment, the system named is RS4;11 cells (wt). Nature of the experiment: Cell viability assay (72 h). The note with it: Homo sapiens, RS4-11, 72 h, read-out: Cell viability IC50 (nM).
For experiment [14], the system named is mononuclear cells from a CML accelerated phase patient harboring BCR-ABL^T315I. Nature of the experiment: Hematopoietic colony forming assay. To be noted: methylcellulose, 14-18 days.
Setting [15] is: MGH-U3, read-out: Cell growth GI50.
Where [16] appears, read: KG-1, read-out: Cell growth GI50 (nM).

Sequence of FGFR2 (P21802 481-770 limits assumed): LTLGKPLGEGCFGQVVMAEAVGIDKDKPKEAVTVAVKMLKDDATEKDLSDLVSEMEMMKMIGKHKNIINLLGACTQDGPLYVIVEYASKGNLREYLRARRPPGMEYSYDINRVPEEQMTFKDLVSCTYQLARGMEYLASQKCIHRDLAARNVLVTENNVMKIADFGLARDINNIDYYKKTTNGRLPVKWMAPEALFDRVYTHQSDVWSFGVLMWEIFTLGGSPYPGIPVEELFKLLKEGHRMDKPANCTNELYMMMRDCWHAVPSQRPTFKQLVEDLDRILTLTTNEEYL
Method for MV4-11 cells (FLT3-ITD): as §2
Method for RS4;11 cells (wt): as §2

As for `COc1cc2c(Oc3ccc4[nH]c(C)cc4c3F)ncnc2cc1OCCCN1CCCC1` [AZD 2171], the GI50 in experiment [1] was 34 nM; in [2], 296 nM; in experiment [3], greater than 1000 nM; in experiment [4] (KG-1, KG1, read-out: Cell growth GI50), 23 nM; in experiment [6] (setting [15]) it was 296 nM. Besides, the IC50 in experiment [5] worked out at 148 nM.

Regarding `COC(=O)c1ccc2c(c1)NC(=O)/C2=C(\Nc1ccc(N(C)C(=O)CN2CCN(C)CC2)cc1)c1ccccc1` [BIBF 1120], the GI50 in experiment [1] is 684 nM; in experiment [2], 297 nM; in experiment [3], 1540 nM; in experiment [7] it was 496 nM; in experiment [4] (setting [16]), 221 nM; in [6] (read-out: Cell growth GI50 (nM), MGH-U3), greater than 1000 nM. Moreover, in [5], the IC50 was 496 nM.

In the case of `Cc1cc2c(F)c(Oc3ncnn4cc(OC[C@@H](C)O)c(C)c34)ccc2[nH]1` [BMS-540215], the concentration for 50% growth inhibition (GI50) in experiment [1] is greater than 1000 nM; in [2] it was 6200 nM; in experiment [3], greater than 10000 nM; in [7], greater than 1000 nM; in experiment [6] (setting [15]), greater than 1000 nM. The results for the IC50 (against FGFR2; in experiment [5]) were 202 nM and greater than 1000 nM, respectively.

For the compound `CCN(CC)CCCCNc1ncc2cc(-c3cc(OC)cc(OC)c3)c(NC(=O)NC(C)(C)C)nc2n1` [PD 173074], the 50% growth inhibitory concentration (GI50) in experiment [1] amounted to 187 nM; in [2] it was 83 nM; in experiment [3], 1660 nM; in experiment [7] it was 20 nM; in experiment [4] (setting [16]), 10 nM; in experiment [6] (setting [15]) it was 850 nM. The IC50 at FGFR4 was 367 nM.

`CO[C@H]1C[C@@H]2CC[C@@H](C)[C@@](O)(O2)C(=O)C(=O)N2CCCC[C@H]2C(=O)O[C@H]([C@H](C)C[C@@H]2CC[C@@H](OP(C)(C)=O)[C@H](OC)C2)CC(=O)[C@H](C)/C=C(\C)[C@@H](O)[C@@H](OC)C(=O)[C@H](C)C[C@H](C)/C=C/C=C/C=C/1C` [Ridaforolimus, reference compound]: the EC50 in [8] was 0.4 nM; in experiment [10], 1 nM. In addition, the “TGI (%)” value amounted to 48% in experiment [9] (Ridaforolimus 0.3 mg/kg alone) and 70% in [9] (Ridaforolimus 1 mg/kg alone).

As to `CNC(=O)c1cc(Oc2ccc(NC(=O)Nc3ccc(Cl)c(C(F)(F)F)c3)cc2)ccn1` [Sorafenib, sorafenib], the IC50 in the experiment on MV4-11 cells (FLT3-ITD) is 4 nM; in experiment [11] it was 59 nM; in [12], 0.5 nM; in experiment [13], greater than 100 nM; with RS4;11 cells (wt), greater than 100 nM.

As to `CCN(CC)CCNC(=O)c1c(C)[nH]c(/C=C2\C(=O)Nc3ccc(F)cc32)c1C` [Sunitinib, sunitinib], the IC50 with MV4-11 cells (FLT3-ITD) is 12 nM; in experiment [11], 56 nM; in experiment [12], 3 nM; in experiment [13] it was greater than 100 nM; in the experiment on RS4;11 cells (wt), greater than 100 nM.

For `Cc1cn(-c2cc(NC(=O)c3ccc(C)c(Nc4nccc(-c5cccnc5)n4)c3)cc(C(F)(F)F)c2)cn1` [nilotinib], the “effect on colony formation” value in experiment [14] is “neither nilotinib nor dasatinib showed any effect”.
